Results as given in patent US20230025316A1, “OLAPARIB PHARMACEUTICAL COMPOSITION, FORMULATION THEREOF, PREPARATION METHOD THEREOF AND USE THEREOF” (Sinotherapeutics Inc., priority 2020, published 2023).

What was measured:
[1] = Apparent solubility in pH 6.8 phosphate buffer (shaker, HPLC); format: physicochemical
Procedure: 3. Apparent solubility: excess amount of Olaparib pharmaceutical composition was weighed into a container, about ⅔ of the volume of the container with pH 6.8 phosphate buffer was added, and the container was placed in a shaker at 37° C. for 2 h. After filtering the contents of the container with a 0.45 μm filter membrane, the filtrate was collected, diluted with an appropriate amount of acetonitrile, mixed by vortex, and the concentration of Olaparib was determined by HPLC analysis.

[2] = Dissolution, USP Method 1 (Basket Method), pH 6.8 phosphate buffer; format: physicochemical; conditions: 900 mL, 100 rpm, 37.5° C., 150 mg Olaparib/cup
Procedure: 5. Dissolution sample analysis: the same as the HPLC analysis method described in the above-mentioned apparent solubility assay.
The main absorption site of drugs in the human body is the small intestine, and the pH value in the small intestine is about 6.8. According to the method described above, the dissolution of each Olaparib-cyclodextrin pharmaceutical composition in pH 6.8 phosphate buffer was determined, and the results were shown in Table 1-4.

solubility at 2 h ([1]; aqueous buffer, thermodynamic from solid, pH 6.8 phosphate buffer, 37° C., 2 h): < 100 µg/mL | Solubility ratio (Composition/API) ([1]; pH 6.8 buffer, apparent solubility relative to API): 1 | Cumulative dissolution in pH 6.8 phosphate buffer ([2]; 15 min): 12.2% | Cumulative dissolution in pH 6.8 phosphate buffer ([2]; 30 min): 21.4% | Cumulative dissolution in pH 6.8 phosphate buffer ([2]; 45 min): 30.2% | Cumulative dissolution in pH 6.8 phosphate buffer ([2]; 60 min): 37.5% | Cumulative dissolution in pH 6.8 phosphate buffer ([2]; 90 min): 39.8%
SMILES: O=C(c1cc(Cc2n[nH]c(=O)c3ccccc23)ccc1F)N1CCN(C(=O)C2CC2)CC1 [API, 4-[(3-{[4(cyclopropylcarbonyl)piperazin-1-yl]carbonyl}-4-fluorophenyl)methyl]phthalazin-1(2H)-one]
